Experimental data as given in ChEMBL document CHEMBL4706681, “New 2-Pyrazoline and Hydrazone Derivatives as Potent and Selective Monoamine Oxidase A Inhibitors” (J Med Chem, 2021).
Active and inactive are the calls of the source. The rule behind the calls is not given here.

How the values were obtained:
[1] = Ex vivo inhibition of MAOA in CD1 mouse brain homogenates assessed as assessed as inhibition of 5-HT deamination by measuring 5-HIAA metabolite levels at 30 mg/kg, po administered as single acute dose via gavage and measured after 1 hr by HPLC analysis (reference value: 0.28 +/- 0.011 ug/g); type: functional
[2] = Ex vivo inhibition of MAOA in CD1 mouse brain homogenates assessed as MAOA level at 30 mg/kg, po administered as subchronic dose via gavage for 7 days and measured 1 hr post last dose by monoamine oxidase assay (reference value: 0.40 +/- 0.005 nmol/min/mg); type: functional; details: time 7 day
[3] = system: Mus musculus; assay: Antidepressant-like activity in CD1 mouse assessed as reduction in immobility time at 30 mg/kg, po administered via gavage as single dose measured after 1 hr by Porsolt-forced swim test; type: functional, organism-based
[4] = Ex vivo inhibition of MAOA in CD1 mouse brain homogenates assessed as assessed as inhibition of dopamine deamination by measuring DOPAC metabolite levels at 30 mg/kg, po administered as single acute dose via gavage and measured after 1 hr by HPLC analysis (reference value: 1.22 +/- 0.2 ug/g); type: functional
[5] = Ex vivo inhibition of MAOA in CD1 mouse brain homogenates assessed as dopamine levels at 30 mg/kg, po administered as single acute dose via gavage and measured after 1 hr by ELISA kit method (reference value: 7.08 +/- 0.58 ug/g); type: functional
[6] = Selectivity index, ratio of Ki for inhibition of recombinant human MAO-A to Ki for inhibition of recombinant human MAO-B using p-tyramine as substrate
[7] = Ex vivo inhibition of MAOA in CD1 mouse brain homogenates assessed as MAOA level at 20 mg/kg, po administered administered as single acute dose via gavage and measured after 1 hr by monoamine oxidase assay (reference value: 0.40 +/- 0.012 nmol/min/mg); type: functional
[8] = Ex vivo inhibition of MAOA in CD1 mouse brain homogenates assessed as inhibition of 5-HT deamination by measuring 5-HIAA metabolite levels at 20 mg/kg, po administered as single acute dose via gavage and measured after 1 hr by HPLC analysis (reference value: 0.28 +/- 0.011 ug/g); type: functional
[9] = Ex vivo inhibition of MAOA in CD1 mouse brain homogenates assessed as MAOA level at 20 mg/kg, po administered as subchronic dose via gavage for 7 days and measured 1 hr post last dose by monoamine oxidase assay (reference value: 0.40 +/- 0.005 nmol/min/mg); type: functional; details: time 7 day
[10] = Ex vivo inhibition of MAOA in CD1 mouse brain homogenates assessed as 5-HT levels at 20 mg/kg, po administered as subchronic dose via gavage for 7 days and measured 1 hr post last dose by ELISA kit method (reference value: 0.78 +/- 0.01 ug/g); type: functional; details: time 7 day

Row | SMILES | Activity [1] [µg/g] | Activity [2] [nmol/min/mg] | Activity [3] | Activity [4] [µg/g] | Activity [5] [µg/g] | Ratio Ki [6] | Activity [7] [nmol/min/mg] | Activity [8] [µg/g] | Activity [9] [nmol/min/mg] | Activity [10] [µg/g]
1 | COc1ccc(C2=NN(C(=O)Cn3c(=O)oc4ccc(C)cc43)C(c3cccc(OC)c3OC)C2)cc1 (stereo not given) | 0.35 | 0.21 | Active | 1.25 | 7.13 | 1.37 10^-5No_unit |  |  |  | 
2 | O=C(NCCN1CCOCC1)c1ccc(Cl)cc1 [MOCLOBEMIDE] |  |  |  |  |  |  | 0.35 | 0.32 | 0.33 | 0.91
